SMILES strings stand for the structures.

Assay [1] deals with MBP–β1AR6P (Meleagris gallopavo, UniProt P07700, C116L/C358A/D322K/DEL244-271/E130W/F327A/F338M/M44C/M90V/V103C). The assay can be described thus: Radioligand saturation binding, receptor in nanodiscs. More on the design: species or system turkey (Meleagris gallopavo). Particulars: read-out: apparent Kd.
In assay [2] the target is MBP–β1AR6P + βarr1 (Meleagris gallopavo, UniProt P07700, C116L/C358A/D322K/DEL244-271/E130W/F327A/F338M/M44C/M90V/V103C). The assay can be described thus: Radioligand saturation binding, receptor in nanodiscs with βarr1. More on the design: species or system turkey (Meleagris gallopavo). Conditions: read-out: apparent Kd.
In assay [3] the target is MBP–β1AR6P + mini-Gs (Meleagris gallopavo, UniProt P07700, C116L/C358A/D322K/DEL244-271/E130W/F327A/F338M/M44C/M90V/V103C). The assay can be described thus: Radioligand saturation binding, receptor in nanodiscs with mini-Gs. Conditions: read-out: apparent Kd. More on the design: species or system turkey (Meleagris gallopavo).
For assay [4], the system named is β44–V2R. The assay can be described thus: Arrestin recruitment bias from GloSensor cAMP. It counts as cell-based, turkey (Meleagris gallopavo). Conditions: with reference to isoprenaline, equiactive comparison approach. In general terms: Activated receptors often draw arrestin, which recruitment assays turn into a signal.

On to `CCCc1ccccc1OCC(O)CNC(C)C` (stereo not shown) [[^3H]DHA, tritiated dihydroalprenolol], for which the Kd in assay [1] came out at 6 nM; in assay [2] it was 6 nM; in assay [3], 1.5 nM.
For `COc1ccc(CC(C)NCC(O)c2ccc(O)c(NC=O)c2)cc1` (stereo not shown) [formoterol], in assay [4], the “bias factor (arrestin recruitment bias)” value is recorded as 2.3 ± 0.4.

The values are drawn from paper PMC7115876 (Nature, 2020).
